For 22 compounds, IC50 results are on record in patent publication US20070049591A1, “Inhibitors of MAPK/Erk Kinase” (KALYPSYS, INC., priority 2005, published 2007).

The target in this assay is T1, human phospho-Mek1 / non-phosphorylated Mek1 (Homo sapiens, UniProt Q02750).
T1 construct: GST (N); His6 (C); purchased Upstate 14-429 (phospho-Mek1) or 14-420 (non-phosphorylated Mek1)
T1 sequence (Q02750 whole entry): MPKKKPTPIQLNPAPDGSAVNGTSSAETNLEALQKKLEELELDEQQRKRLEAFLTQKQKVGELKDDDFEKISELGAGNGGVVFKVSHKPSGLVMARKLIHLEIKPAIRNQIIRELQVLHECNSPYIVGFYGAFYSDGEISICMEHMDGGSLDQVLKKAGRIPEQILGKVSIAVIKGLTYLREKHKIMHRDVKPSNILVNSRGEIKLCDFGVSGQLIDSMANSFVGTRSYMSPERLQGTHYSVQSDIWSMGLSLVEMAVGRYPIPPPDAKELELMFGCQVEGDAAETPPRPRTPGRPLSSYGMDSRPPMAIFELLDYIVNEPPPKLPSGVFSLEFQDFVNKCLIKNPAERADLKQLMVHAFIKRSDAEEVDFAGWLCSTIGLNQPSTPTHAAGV
Description: In vitro Mek1 Kinase Assay. The class given is biochemical. The conditions noted are these: recombinant GST/His6-tagged Mek1, 2 μM ATP, 2 hours at 30° C., PKLight luminescence readout. How it is done:
In vitro Mek1 Kinase Assay
2.5 μl of Mek1 kinase buffer (10 mM MOPS [pH 7.2], 25 mM sodium glycerophosphate, 5 mM EGTA [pH 8.0], 1 mM sodium orthovanadate, 1 mM dithiothreitol, 10 mM MgCl2, 0.1% Brij-35, 0.3 mg/ml bovine serum albumin) containing either 5 ng of high specific activity, recombinant N-terminal GST-tagged, C-terminal His6-tagged human phospho-Mek1 (Upstate Cat. 14-429), or 200 ng of low specific activity, non-phosphorylated Mek1 (Upstate Cat. 14-420), is dispensed into one well of a 1536 multi-well white solid plate. 50 nl of 100× concentration of test compound in dimethyl sulfoxide (DMSO) is dispensed to the well by passive pin transfer and incubated for 15 minutes at room temperature (22° C.). 2.5 μl of Mek1 kinase buffer containing 2 μM ATP is then dispensed and the kinase reaction is allowed to incubate at 30° C. for 2 hours. The assay plates are lidded and maintained in a humidified environment. After 2 hours, 2.5 μl of PKLight protein kinase assay reagent (Cambrex) is dispensed. After an additional 5 minute incubation at room temperature, luminescence activity is measured on a suitable multi-mode plate reader. Inhibition of Mek1 kinase causes an associated increase in luminescence activity that is proportional to compound concentration. Negative control activity is measured with DMSO lacking any test compound. Positive control activity is measured with (R)—N— (2,3-dihydroxypropoxy)-3,4-fluoro4-iodophenylamino)benzamide [Thompson, N. and Lyons, J., Curr Opin Pharmacol, 5:350-356, 2005 (PD-0325901)]. Efficacy is measured as a percentage of positive control activity.
As to `CC(=O)c1ccc(-c2cnc3ccc(NCc4cccs4)nn23)s1` [Example 8, 1-(5-(6-(thiophen-2-ylmethylamino)imidazo[1,2-b]pyridazin-3-yl)thiophen-2-yl)ethanone], the IC50 (as a rule, the concentration at which inhibition is half-maximal) is greater than 10 µM.

As for `c1ccc2c(c1)CCN2c1ncnc2[nH]cnc12` [Example 5, 6-(indolin-1-yl)-9H-purine], the IC50 is greater than 10 µM.

For `N#Cc1ccc(-c2cnc3ccc(NCCCO)nn23)cc1` [Example 18, 4-(6-(3-hydroxypropylamino)imidazo [1,2-b]pyridazin-3-yl)benzonitrile], the IC50 is no more than 10 µM.

As for `CCN(c1ncnc2[nH]cnc12)C1CCCCC1` [Example 4, N-cyclohexyl-N-ethyl-9H-purin-6-anime], the IC50 is no more than 10 µM.

As to `N#Cc1ccc(-c2cnc3ccc(NC4CCOCC4)nn23)cc1` [Example 12, 4-(6-(tetrahydro-2H-pyran-4-ylamino)imidazo[1,2-b]pyridazin-3-yl)benzonitrile], the IC50 was no more than 10 µM.

As to `Cn1cc(-c2cnc3ccc(NCc4cccs4)nn23)cn1` [Example 11], the IC50 was no more than 10 µM.

Turning to `CC(C)(C)n1nc(-c2ccc(F)cc2)c2c(N)ncnc21` [Example 3, 1-tert-butyl-3-(4-fluorophenyl)-1H-pyrazolo[3,4-d]pyrimidin-4-amine], the IC50 is no more than 10 µM.

In the case of `CN(C)CCNc1ccn2ncc(-c3ccc(Cl)cc3)c2n1` [Example 21, N1-(3-(4-chlorophenyl)pyrazolo[1,5-a]pyrimidin-5-yl)-N2,N2-dimethylethane-1,2-diamine], the IC50 is greater than 10 µM.

For the compound `CCCNc1ccc2ncc(-c3ccc(C(=O)O)cc3)n2n1` [Example 22, 4-(6-(propylamino)imidazo[1,2-b]pyridazin-3-yl)benzoic acid], the IC50 is greater than 10 µM.

`c1nc2nc[nH]c(NC3CCCCCC3)c-2n1` [Example 17, N-cycloheptyl-9H-purin-6-amine]: the IC50 was greater than 10 µM.

Consider `O=C(O)c1ccc(-c2cnc3ccc(NCc4ccc(F)cc4)nn23)cc1` [Example 10, 4-(6-(4-fluorobenzylamino)imidazo[1,2-b]pyridazin-3-yl)benzoic acid], for which the IC50 is no more than 10 µM.

On to `O=C(O)c1ccc(-c2cnc3ccc(NC4CCOCC4)nn23)cc1` [Example 13, 4-(6-(tetrahydro-2H-pyran-4-ylamino)imidazo[1,2-b]pyridazin-3-yl)benzoic acid], for which the IC50 was no more than 10 µM.

`CC1CCN(c2ncnc3[nH]cnc23)CC1` [Example 6, 6-(4-methylpiperidin-1-yl)-9H-purine]: the IC50 is greater than 10 µM.

As for `c1ccc2c(c1)[nH]c1ncnc(N3CCOCC3)c12` [Example 1, 4-(9H-pyrimido[4,5-b]indol-4-yl)morpholine], the IC50 is no more than 10 µM.

`Cc1c([N+](=O)[O-])c2ccc(O)cc2n1-c1ccccc1` [Example 2, 2-methyl-3-nitro-1-phenyl-1H-indol-6-ol]: the IC50 is no more than 10 µM.

Consider `COc1cc(OC)c2c(c1)ncc1c(C)nn(-c3ccccc3)c12` [Example 7, 7,9-dimethoxy-3-methyl-1-phenyl-1H-pyrazolo[4,3-c]quinoline], for which the IC50 was no more than 10 µM.

Take `c1nc(NC2CCCC2)c2nc[nH]c2n1` [Example 16, N-cyclopentyl-9H-purin-6-amine]: the IC50 was greater than 10 µM.

For `O=C(O)c1ccc(-c2cnc3ccc(NC4CCC(O)CC4)nn23)cc1` (stereo not shown) [Example 15, 4-(6-(4-hydroxycyclohexylamino)imidazo[1,2-b]pyridazin-3-yl)benzoic acid], the IC50 was no more than 10 µM.

Regarding `N#Cc1ccc(-c2cnc3ccc(NCCc4cccnc4)nn23)cc1` [Example 20, 4-(6-(2-(pyridin-3-yl)ethylamino)imidazo[1,2-b]pyridazin-3-yl)benzonitrile], the IC50 was no more than 10 µM.

`COc1cncc(-c2cnc3ccc(NC4CCOCC4)nn23)c1` [Example 14, 3-(5-methoxypyridin-3-yl)-N-(tetrahydro-2H-pyran-4-yl)imidazo[1,2-b]pyridazin-6-amine]: the IC50 was greater than 10 µM.

With `O=C(O)c1ccc(-c2cnc3ccc(NCc4cccs4)nn23)cc1` [Example 9, 4-(6-(thiophen-2-ylmethylamino)imidazo[1,2-b]pyridazin-3-yl)benzoic acid], the IC50 was no more than 10 µM.

As for `N#Cc1ccc(-c2cnc3ccc(NCCc4ccccn4)nn23)cc1` [Example 19, 4-(6-(2-(pyridin-2-yl)ethylamino)imidazo[1,2-b]pyridazin-3-yl)benzonitrile], the IC50 is no more than 10 µM.
